“And” between values parts separate entries of the source, which are not always exact repeats. Equal values may be shown once. Records with an inconclusive call do not appear.
Tested on: BDF1 mice, B16 melanoma s.c., survival/tumor T/C
Test: NCI In Vivo Anticancer Drug Screen. Data for tumor model B16 Melanoma (subcutaneous) in B6D2F1 (BDF1) mice
Procedure: The antitumor activity of compounds was measured in mice bearing transplantable tumors. Survival or tumor size were measured and the results are expressed as the measurement made in the treated group (T) divided by the measurement made in the vehicle treated control group (C). The tumor model used in this assay is B16 Melanoma (subcutaneous) in B6D2F1 (BDF1) mice

For `Cc1cc(NC(=O)NCc2ccc(N3C(N)=NC(N)=NC3(C)C)cc2)ccc1S(=O)(=O)F`, the T/C (endpoint: median survival time, dose: 50.0 mg/kg/injection, schedule: Q04DX003 (ip), vehicle: saline, higher = longer survival) was 106 % of control and the T/C (endpoint: median survival time, dose: 100.0 mg/kg/injection, schedule: Q04DX003 (ip), vehicle: saline, higher = longer survival) was 95 % of control.

`O=c1[nH]cc(N(CCCl)CCCl)c(=O)[nH]1` was tested, and the T/C (endpoint: median survival time, dose: 0.25 mg/kg/injection, schedule: Q01DX009 (ip), vehicle: saline with Tween-80, higher = longer survival) was 109 % of control and the T/C (endpoint: median survival time, dose: 0.5 mg/kg/injection, schedule: Q01DX009 (ip), vehicle: saline with Tween-80, higher = longer survival) was 124 % of control.

`c1ccc([As+](c2ccccc2)(c2ccccc2)c2ccccc2)cc1` was tested, and the T/C (endpoint: median survival time, dose: 1.87 mg/kg/injection, schedule: Q01DX009 (ip), vehicle: Klucel (hydroxypropylcellulose) (HPC), higher = longer survival) was 95 % of control and the T/C (endpoint: median survival time, dose: 3.75 mg/kg/injection, schedule: Q01DX009 (ip), vehicle: Klucel (hydroxypropylcellulose) (HPC), higher = longer survival) was 109 % of control.

For `Cc1c(N)nc(C(CC(N)=O)NCC(N)C(N)=O)nc1C(=O)NC(C(=O)NC(C)C(O)C(C)C(=O)NC(C(=O)NCCc1nc(-c2nc(C(=O)NCCCNCCCCN)cs2)cs1)C(C)O)C(OC1OC(CO)C(O)C(O)C1OC1OC(CO)C(O)C(OC(N)=O)C1O)c1cnc[nH]1` (stereo not drawn), the T/C (endpoint: median survival time, dose: 1.56 mg/kg/injection, schedule: Q01DX009 (ip), vehicle: water, higher = longer survival) was 164 % of control, the T/C (endpoint: median tumor weight (est.), dose: 1.56 mg/kg/injection, schedule: Q01DX009 (ip), vehicle: water, higher = larger tumour) was 41 % of control and the T/C (endpoint: median tumor weight (est.), dose: 3.12 mg/kg/injection, schedule: Q01DX009 (ip), vehicle: water, higher = larger tumour) was 24 % of control. For the same compound, the T/C (endpoint: median tumor weight (est.), dose: 6.25 mg/kg/injection, schedule: Q01DX009 (ip), vehicle: water, higher = larger tumour) was 12 % of control.

`CN(N=O)C(N)=O` was tested, and the T/C (endpoint: median survival time, dose: 3.12 mg/kg/injection, schedule: Q01DX009 (ip), vehicle: saline, higher = longer survival) was 97 % of control, the T/C (endpoint: median survival time, dose: 6.25 mg/kg/injection, schedule: Q01DX009 (ip), vehicle: saline, higher = longer survival) was 105 % of control and the T/C (endpoint: median survival time, dose: 12.5 mg/kg/injection, schedule: Q01DX009 (ip), vehicle: saline, higher = longer survival) was 109 % of control.

In the case of `Nc1ncn(C2OC(CO)C(O)C2O)c(=O)n1` (stereo not drawn), the T/C (endpoint: median survival time, dose: 0.2 mg/kg/injection, schedule: Q01DX009 (ip), vehicle: saline, higher = longer survival) is reported as 100 % of control, the T/C (endpoint: median survival time, dose: 0.4 mg/kg/injection, schedule: Q01DX009 (ip), vehicle: saline, higher = longer survival) is reported as 104 % of control and the T/C (endpoint: median survival time, dose: 0.5 mg/kg/injection, schedule: Q01DX009 (ip), vehicle: saline, higher = longer survival) is reported as 87 % of control. The T/C (endpoint: median survival time, dose: 0.75 mg/kg/injection, schedule: Q01DX009 (ip), vehicle: Klucel (hydroxypropylcellulose) (HPC), higher = longer survival) was 111 % of control, the T/C (endpoint: median survival time, dose: 0.8 mg/kg/injection, schedule: Q01DX009 (ip), vehicle: saline, higher = longer survival) was 123 % of control and the T/C (endpoint: median survival time, dose: 1.0 mg/kg/injection, schedule: Q01DX009 (ip), vehicle: saline, higher = longer survival) was 105 % of control. For the same compound, the T/C (endpoint: median survival time, dose: 1.6 mg/kg/injection, schedule: Q01DX009 (ip), vehicle: saline, higher = longer survival) was 106 % of control, the T/C (endpoint: median survival time, dose: 3.2 mg/kg/injection, schedule: Q01DX009 (ip), vehicle: saline, higher = longer survival) was 114 % of control and 116 % of control and the T/C (endpoint: median tumor weight (est.), dose: 0.75 mg/kg/injection, schedule: Q01DX009 (ip), vehicle: saline, higher = larger tumour) was 87 % of control and 96 % of control. For the same compound, the T/C (endpoint: median tumor weight (est.), dose: 1.5 mg/kg/injection, schedule: Q01DX009 (ip), vehicle: saline, higher = larger tumour) was 41 % of control and 48 % of control, the T/C (endpoint: median tumor weight (est.), dose: 3.0 mg/kg/injection, schedule: Q01DX009 (ip), vehicle: saline, higher = larger tumour) was 52 % of control and 57 % of control and the T/C (endpoint: median tumor weight (est.), dose: 6.0 mg/kg/injection, schedule: Q01DX009 (ip), vehicle: saline, higher = larger tumour) was 21 % of control and 26 % of control.

In the case of `O=c1[nH]c(=O)n([C@H]2CCCO2)cc1F`, the T/C (endpoint: median survival time, dose: 23.0 mg/kg/injection, schedule: Q01DX009 (ip), vehicle: saline, higher = longer survival) is reported as 101 % of control, the T/C (endpoint: median survival time, dose: 39.0 mg/kg/injection, schedule: Q01DX009 (ip), vehicle: saline, higher = longer survival) is reported as 100 % of control and the T/C (endpoint: median survival time, dose: 65.0 mg/kg/injection, schedule: Q01DX009 (ip), vehicle: saline, higher = longer survival) is reported as 100 % of control. The T/C (endpoint: median survival time, dose: 108.0 mg/kg/injection, schedule: Q04DX003 (ip), vehicle: saline, higher = longer survival) was 118 % of control and the T/C (endpoint: median survival time, dose: 180.0 mg/kg/injection, schedule: Q04DX003 (ip), vehicle: saline, higher = longer survival) was 107 % of control.

For `Cc1cc2oc(=O)c3c(c2c(O)c1CN1CCN(C)CC1)CCCC3`, the T/C (endpoint: median survival time, dose: 64.0 mg/kg/injection, schedule: Q01DX009 (ip), vehicle: Klucel (hydroxypropylcellulose) (HPC), higher = longer survival) was 110 % of control and the T/C (endpoint: median survival time, dose: 128.0 mg/kg/injection, schedule: Q01DX009 (ip), vehicle: Klucel (hydroxypropylcellulose) (HPC), higher = longer survival) was 113 % of control.

`N[C@H](C(=O)O)[C@H]1ON=C(Cl)[C@@H]1O` was tested, and the T/C (endpoint: median survival time, dose: 8.0 mg/kg/injection, schedule: Q01DX009 (ip), vehicle: saline, higher = longer survival) was 113 % of control, the T/C (endpoint: median survival time, dose: 16.0 mg/kg/injection, schedule: Q01DX009 (ip), vehicle: saline, higher = longer survival) was 114 % of control and the T/C (endpoint: median survival time, dose: 32.0 mg/kg/injection, schedule: Q01DX009 (ip), vehicle: saline, higher = longer survival) was 108 % of control. The T/C (endpoint: median survival time, dose: 128.0 mg/kg/injection, schedule: Q01DX009 (ip), vehicle: saline, higher = longer survival) was 114 % of control, the T/C (endpoint: median survival time, dose: 256.0 mg/kg/injection, schedule: Q01DX009 (ip), vehicle: saline, higher = longer survival) was 114 % of control and the T/C (endpoint: median survival time, dose: 500.0 mg/kg/injection, schedule: Q01DX009 (ip), vehicle: saline with Tween-80, higher = longer survival) was 117 % of control.
